According to ChEMBL document CHEMBL1154028, “Pyrazole acids as niacin receptor agonists for the treatment of dyslipidemia” (Bioorg Med Chem Lett, 2009):
Activity calls are given as the source filed them. The calls are words filed in the database; no cut-off is given here.

Columns and labels:
[1] = tested on: Blood; assay: Drug level in rat blood at 30 mg/kg, sc; format: ADME, organism-based; design: dose 30 mg/kg, route subcutaneous; details: in vivo, read-out: Drug uptake
[2] = tested on: Rattus norvegicus; assay: Decrease in blood free fatty acid level in po dosed rat
[3] = tested on: Rattus norvegicus; assay: Decrease in blood free fatty acid level in rat at 3 mg/kg, po; format: functional; design: scale not given: the % may be the effect or the level left
[4] = tested on: Rattus norvegicus; assay: Toxicity in rat assessed as changes in rat ear blood perfusion upto 30 mg/kg, sc; format: organism-based; design: dose 30 mg/kg, route subcutaneous; details: in vivo
[5] = biological target: Hydroxycarboxylic acid receptor 2 (Homo sapiens) (UniProt Q8TDS4); assay: Displacement of [3H]niacin from human niacin receptor expressed in […] cells at 25 uM in presence of 5% human serum; format: cell-based
[6] = biological target: Hydroxycarboxylic acid receptor 2 (Homo sapiens) (UniProt Q8TDS4); assay: Displacement of [3H]niacin from human niacin receptor expressed in […] cells at 25 uM in absence of 5% human serum; format: cell-based
[7] = tested on: Rattus norvegicus; assay: Decrease in blood free fatty acid level in rat at 100 mg/kg, po after 20 mins; format: functional, organism-based; design: dose 100 mg/kg
[8] = Half life in mouse at 1 mg/kg, iv or 2 mg/kg, po; format: ADME, organism-based; details: in vivo
[9] = Cmax in mouse at 1 mg/kg, iv or 2 mg/kg, po; format: ADME, organism-based; details: in vivo
[10] = Volume of distribution at steady state in mouse at 1 mg/kg, iv or 2 mg/kg, po; format: ADME, organism-based; details: in vivo, read-out: Vdss
[11] = Plasma clearance in mouse at 1 mg/kg, iv or 2 mg/kg, po; format: ADME, organism-based
[12] = Oral bioavailability in mouse at 2 mg/kg; format: ADME, organism-based; details: in vivo

Sequence of Hydroxycarboxylic acid receptor 2 (Homo sapiens) (Q8TDS4 whole entry): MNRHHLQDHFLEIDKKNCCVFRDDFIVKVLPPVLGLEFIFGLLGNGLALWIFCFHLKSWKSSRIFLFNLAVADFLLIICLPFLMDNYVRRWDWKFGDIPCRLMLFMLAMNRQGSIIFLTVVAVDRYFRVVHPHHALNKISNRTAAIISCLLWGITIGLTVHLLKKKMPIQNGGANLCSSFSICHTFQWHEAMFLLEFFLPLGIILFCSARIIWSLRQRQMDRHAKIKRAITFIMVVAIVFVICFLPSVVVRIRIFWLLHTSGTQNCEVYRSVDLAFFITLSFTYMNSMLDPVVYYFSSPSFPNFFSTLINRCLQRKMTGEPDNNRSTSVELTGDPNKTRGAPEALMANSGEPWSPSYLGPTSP

SMILES: Br.O=C(O)c1n[nH]c2c1CC(c1cc(F)ccc1F)CC2 (centres undefined)
- concentration [1]: 135 µM
- EC50 [2]: 3000 nM
- Activity [3]: 50%
- Activity [4]: Non-toxic

SMILES: Fc1ncccc1C1CCC2=C(C1)C(=C1N=NN=N1)N=N2 (centres undefined)
- Activity [5]: 75%
- Activity [6]: 40%

SMILES: O=C(O)c1n[nH]c2c1CC(c1cc(F)ccc1F)CC2 (centres undefined)
- Activity [5]: 84%
- Activity [6]: 56%
- Activity [7]: Active

SMILES: O=C(O)c1n[nH]c2c1CC(c1cccnc1F)CC2 (racemic)
- half-life [8]: 2.6 h
- Cmax [9]: 2.3 µM
- Activity [5]: 88%
- Vd [10]: 2.4 L/kg
- Activity [6]: 90%
- clearance [11]: 21 mL/min/kg
- bioavailability [12]: 47%

SMILES: O=C(O)c1n[nH]c2c1CC(c1cc(F)ccc1F)CC2 (racemic)
- half-life [8]: 2.9 h
- Cmax [9]: 3.3 µM
- Vd [10]: 1.4 L/kg
- clearance [11]: 8.3 mL/min/kg
- bioavailability [12]: 53%

SMILES: Fc1ccc(F)c(C2CCc3[nH]nc(-c4nnn[nH]4)c3C2)c1 (racemic)
- Activity [5]: 17%

SMILES: O=C(O)c1n[nH]c2c1CC(c1ccccc1)CC2 (racemic)
- Activity [5]: 35%
- Activity [6]: 19%

SMILES: O=C(O)c1n[nH]c2c1CC(c1ccccc1Cl)CC2 (racemic)
- Activity [5]: 20%

SMILES: O=C(O)c1n[nH]c2c1CC(c1ccccc1F)CC2 (racemic)
- Activity [5]: 18%

SMILES: O=C(O)c1n[nH]c2c1CC(c1ccnc(F)c1)CC2 (racemic)
- Activity [5]: 69%
- Activity [6]: 60%

SMILES: O=C(O)c1n[nH]c2c1CCC(c1ccccc1)C2 (racemic)
- Activity [6]: 63%
